Source: ChEMBL document CHEMBL1201862, “PubChem BioAssay data set” (2004)
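Cells were grown in 96-well plates and exposed to each compound for 48 hours at five concentrations; endpoints were interpolated linearly between bracketing concentrations, or set to the highest concentration if not reached. GI50 = concentration required for 50% inhibition of growth.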 Active and inactive are the calls of the source. No stated cut-off is given here; in the data, active = GI50 up to about 1.1 µM and inactive = higher.

Columns and labels:
Assay in all cases: DTP human tumour cell line panel, 48 h
SNB-75 = test system: SNB-75
PC-3 = test system: PC-3
SF-268 = test system: SF-268
SNB-19 = test system: SNB-19
ACHN = test system: ACHN
OVCAR-4 = test system: OVCAR-4
SR = test system: SR
SK-OV-3 = test system: SK-OV-3
CAKI-1 = test system: CAKI-1
IGROV-1 = test system: IGROV-1
MCF7 = test system: MCF7
SF-295 = test system: SF-295
A498 = test system: A498
DU-145 = test system: DU-145
UACC-257 = test system: UACC-257
OVCAR-3 = test system: OVCAR-3
T47D = test system: T47D
HCT-116 = test system: HCT-116
A549 = test system: A549
HL-60 = test system: HL-60

Measured: GI50

C1=Cc2ccccc2C1.C=C(C)c1ccccc1.[N-]=[N+]=Nc1ccccc1
inactive: SNB-75 49 µM | PC-3 > 100 µM | SF-268 > 100 µM | SNB-19 > 100 µM | ACHN > 100 µM | OVCAR-4 > 100 µM | SR > 100 µM | SK-OV-3 > 100 µM | CAKI-1 > 100 µM | IGROV-1 > 100 µM | MCF7 31.3 µM | SF-295 > 100 µM | A498 > 100 µM | DU-145 > 100 µM | UACC-257 41 µM | OVCAR-3 > 100 µM | T47D 68.5 µM | HCT-116 48.3 µM | A549 > 100 µM | HL-60 62.4 µM

O=CN1CCN(CC(O)CN2CCCCC2)CC1 (stereo not drawn)
inactive: SNB-75 > 100 µM | PC-3 > 100 µM | SF-268 > 100 µM | SNB-19 > 100 µM | ACHN > 100 µM | OVCAR-4 > 100 µM | SR > 100 µM | SK-OV-3 > 100 µM | CAKI-1 > 100 µM | IGROV-1 > 100 µM | MCF7 > 100 µM | SF-295 > 100 µM | A498 > 100 µM | DU-145 > 100 µM | UACC-257 > 100 µM | OVCAR-3 > 100 µM | T47D > 100 µM | HCT-116 > 100 µM | A549 > 100 µM | HL-60 > 100 µM

COC1CC(C)(NC(C)=O)C2OC(c3ccccc3)OCC2O1 (stereo not drawn)
inactive: SNB-75 > 100 µM | PC-3 > 100 µM | SF-268 > 100 µM | SNB-19 > 100 µM | ACHN > 100 µM | OVCAR-4 > 100 µM | SR > 100 µM | SK-OV-3 > 100 µM | CAKI-1 > 100 µM | IGROV-1 > 100 µM | MCF7 > 100 µM | SF-295 > 100 µM | A498 > 100 µM | DU-145 > 100 µM | UACC-257 > 100 µM | OVCAR-3 > 100 µM | T47D > 100 µM | HCT-116 > 100 µM | A549 > 100 µM | HL-60 > 100 µM

CSc1c(C#N)c(=O)n(N)c2c1c(C)nn2-c1ccccc1
inactive: SNB-75 28.2 µM | PC-3 19.7 µM | SF-268 42 µM | SNB-19 28.4 µM | OVCAR-4 23.6 µM | SR 23.6 µM | SK-OV-3 26.4 µM | CAKI-1 19.9 µM | MCF7 16.6 µM | A498 21.4 µM | DU-145 37.2 µM | UACC-257 22 µM | OVCAR-3 25.1 µM | T47D 25.8 µM | HCT-116 23.7 µM | A549 21.9 µM | HL-60 26.2 µM

O=Cc1ccc2c(c1)CC1(C2)Cc2ccc3c(c2C1)CCC3 (stereo not drawn)
inactive: SNB-75 7.24 µM | PC-3 5.51 µM | SF-268 12.9 µM | SNB-19 7.08 µM | ACHN 32.1 µM | OVCAR-4 10.8 µM | SR 4.42 µM | SK-OV-3 18.2 µM | CAKI-1 21.1 µM | IGROV-1 16.4 µM | MCF7 4.43 µM | SF-295 5.85 µM | A498 23.8 µM | DU-145 22.1 µM | UACC-257 16 µM | OVCAR-3 6.68 µM | T47D 18.2 µM | HCT-116 6.82 µM | A549 37.8 µM | HL-60 3.75 µM

COC(=O)c1cc2c(cc1CC1Cc3cc4c(cc3C1=O)CCC4)CCC2 (stereo not drawn)
inactive: SNB-75 54.1 µM | PC-3 10.7 µM | SF-268 > 100 µM | SNB-19 > 100 µM | ACHN > 100 µM | OVCAR-4 50.4 µM | SR 45.4 µM | SK-OV-3 70.3 µM | CAKI-1 > 100 µM | IGROV-1 97.5 µM | MCF7 34 µM | SF-295 30.7 µM | A498 56 µM | DU-145 > 100 µM | UACC-257 39.1 µM | OVCAR-3 57.4 µM | T47D 24.9 µM | HCT-116 33.4 µM | A549 40.3 µM | HL-60 > 100 µM

CCOC(=O)c1c(NC(=O)OC)c(C#N)c2n1CCCCC2
inactive: SNB-75 > 100 µM | PC-3 > 100 µM | SF-268 > 100 µM | SNB-19 > 100 µM | ACHN > 100 µM | OVCAR-4 > 100 µM | SR > 100 µM | SK-OV-3 > 100 µM | CAKI-1 > 100 µM | IGROV-1 > 100 µM | MCF7 > 100 µM | SF-295 > 100 µM | A498 > 100 µM | DU-145 22.8 µM | UACC-257 > 100 µM | T47D > 100 µM | HCT-116 > 100 µM | HL-60 > 100 µM

CC1(C)COP(=S)(c2ccccn2)O[C@@H]1c1ccccc1 (stereo partly drawn)
inactive: SNB-75 6.19 µM | PC-3 88.7 µM | SF-268 > 100 µM | SNB-19 > 100 µM | ACHN > 100 µM | OVCAR-4 70 µM | SR 30 µM | SK-OV-3 > 100 µM | CAKI-1 > 100 µM | IGROV-1 > 100 µM | MCF7 98.6 µM | SF-295 55.2 µM | A498 > 100 µM | DU-145 > 100 µM | UACC-257 > 100 µM | T47D 22.3 µM | HCT-116 42.8 µM | A549 81.3 µM | HL-60 24.1 µM

CN(N=O)C(=O)Nc1ccc(C(=O)O)cc1
inactive: SNB-75 > 100 µM | PC-3 > 100 µM | SF-268 > 100 µM | SNB-19 > 100 µM | ACHN > 100 µM | OVCAR-4 > 100 µM | SR > 100 µM | SK-OV-3 > 100 µM | CAKI-1 > 100 µM | IGROV-1 > 100 µM | MCF7 > 100 µM | SF-295 > 100 µM | A498 > 100 µM | DU-145 > 100 µM | UACC-257 > 100 µM | OVCAR-3 > 100 µM | T47D > 100 µM | HCT-116 > 100 µM | A549 > 100 µM | HL-60 > 100 µM

O=C(CCCn1ccnc1[N+](=O)[O-])NCCn1cncc1[N+](=O)[O-]
inactive: SNB-75 > 100 µM | PC-3 > 100 µM | SF-268 > 100 µM | ACHN > 100 µM | OVCAR-4 > 100 µM | SR > 100 µM | SK-OV-3 > 100 µM | CAKI-1 > 100 µM | IGROV-1 > 100 µM | MCF7 > 100 µM | SF-295 > 100 µM | A498 > 100 µM | DU-145 > 100 µM | UACC-257 > 100 µM | OVCAR-3 > 100 µM | T47D > 100 µM | HCT-116 > 100 µM | A549 > 100 µM | HL-60 > 100 µM
